In patent publication US5034517A, “Process for producing 2,6-dideoxy-2-fluoro-L-talopyranose” (priority 1986, dated 1991):
Like-named read-outs stand apart in the source and are kept apart here.

Legend:
Leukemia P 388 = settings: cited from earlier work
Leukemia L-1210 = settings: 25 mg/kg, single dose per day, intraperitoneally for 9 days; cited from earlier work
[1] = in vivo; cited from earlier work
some species of bacteria = experiment: Antibacterial activity; type: cell-based; settings: for antibacterial activity: in words; for antibacterial activity compared with phenol: some species of bacteria
experimental tumors [2] = experiment: Animal tests on experimental tumors; type: in vivo; settings: in words
[3] = Stability of glycoside linkage against acid hydrolysis (Test 2); type: physicochemical; settings: for acid hydrolysis, TLC result: 61°-62° C.; for acid hydrolysis: 60° C.; for stability of glycoside linkage against hydrolysis by acid: in words, no conditions
Experimental: Daunomycin (1 mg) was dissolved in a mixture of (0.1 ml) of 0.2N*HCl-80% CH3 CN-H2 O (*the concentration of HCl being 0.2N in the whole mixture) and the solution was heated in oil bath at 61°-62° C. for 30 minutes to cause the hydrolysis. […] The reaction solution was allowed to stand at room temperature to deposit daunomycinone as red crystals.
FTDM (0.7 mg) was suspended in a mixture (0.1 ml) of 0.2N HCl-80% CH3 CN-H2 O and suspension was stirred in an oil bath at 61°-62° C. for 30 minutes.

Leukemia L-1210 cells = experiment: Antitumor activity on leukemia in CDF1 mice caused by Leukemia L-1210 cells (Test 1); settings: for sign of toxicity: 2.5-5 mg/kg/day, in words
Experimental: Antitumor activity on Leukemia in CDF1 mice caused by Leukemia L-1210 cells
In this test, Compounds of formula (m) were assessed in comparison with daunomycin and adriamycin on their tumor inhibitory activity against leukemia in mice Thus, CDF1 mice were intraperitoneally transplanted with cells of Leukemia L-1210 (1×10^5 cells/mouse). From 24 hours after i.p. transplantation of L-1210 cells, each compound to be tested was administered intraperitoneally for 9 consecutive days at once per day. Observation was made for 60 days where survival days of each mouse tested were recorded, and percentage increase in life-span of the treated mice, in comparison with control test wherein mice were treated only with the administration of physiological saline, was calculated as T/C %, where T is the mean survival days of the treated animals and C is the mean survival days of the untreated control animals.

[4] = patients; cited from earlier work
experimental tumors [5] = settings: various kinds of tumors; cited from earlier work
[6] = test system: Micrococcus luteus ATCC 9341; experiment: MIC by standard serial dilution method; type: cell-based; settings: ATCC9341; Micrococcus luteus ATCC 9341 (MS-1)
Description: (§1) Minimum inhibitory concentrations (MIC., mcg/ml) of the new compounds of formulae (h) and (i) against the growth of some species of bacteria have been determined according to a standard serial dilution method.

[7] = test system: Salmonella paratyphi 1015; experiment: MIC by standard serial dilution method; type: cell-based; settings: Salmonella enterica
Description: as §1

[8] = test system: Corynebacterium bovis 1810; experiment: MIC by standard serial dilution method; type: cell-based
Description: as §1

[9] = 0.2N HCl-80% CH3 CN-H2 O, 30 minutes
[10] = 0.15 mg/kg/day, i.p., once per day for 9 days, 60 days observation
[11] = 0.3 mg/kg/day, i.p., once per day for 9 days, 60 days observation
[12] = 0.6 mg/kg/day, i.p., once per day for 9 days, 60 days observation
[13] = 1.25 mg/kg/day, i.p., once per day for 9 days, 60 days observation
[14] = 2.5 mg/kg/day, i.p., once per day for 9 days, 60 days observation
[15] = 5 mg/kg/day, i.p., once per day for 9 days, 60 days observation

Compound: COc1cccc2c1C(=O)c1c(O)c3c(c(O)c1C2=O)C[C@@](O)(C(C)=O)C[C@@H]3O[C@@H]1O[C@@H](C)[C@H](OC(C)=O)[C@@H](OC(C)=O)[C@H]1I [Compound NSC 331,962, 7-O-(3,4-di-O-acetyl-2,6-dideoxy-2-iodo-α-L-manno-hexopyranosyl)daunomycinone]
- increase (in %) of survival days (T/C, %) (Leukemia P 388; 50 mg/kg): 247%
- increase (in %) of survival days (T/C, %) (Leukemia L-1210): 196%

Compound: COc1cccc2c1C(=O)c1c(O)c3c(c(O)c1C2=O)C[C@@](O)(C(=O)CO)C[C@@H]3O [adriamycinone]
- cardiac toxicity compared with daunomycin or adriamycin [1]: higher cardiac toxicity than the daunomycin or adriamycin itself

Compound: COc1cccc2c1C(=O)c1c(O)c3c(c(O)c1C2=O)C[C@@](O)(C(C)=O)C[C@@H]3O[C@@H]1O[C@@H](C)[C@@H](O)[C@@H](O)[C@H]1F [Compound of formula (k), 7-O-(2,6-dideoxy-2-fluoro-α-L-talopyranosyl)daunomycinone]
- antibacterial activity (some species of bacteria): high antibacterial activities
- antitumor activity (experimental tumors [2]): excellent antitumor activities
- toxicity (experimental tumors [2]): low toxicities
- acid hydrolysis, TLC result [3, 9]: presence of the spot of FTDM only
- acid hydrolysis, TLC result ([3]; 0.2N HCl-80% CH3 CN-H2 O, further 3 hours): the spot of FTDM only
- acid hydrolysis ([3]; 1N HCl in acetonitrile-water (4:1), 8 hours): remains substantially as it is, without being decomposed
- acid hydrolysis, TLC result ([3]; 1N HCl overall, 8 hours): a spot of a trace amount of daumonycinone appeared, but most of FTDM was remaining at it was
- stability of glycoside linkage against hydrolysis by acid [3]: high stability against hydrolysis by acid
- sign of toxicity (Leukemia L-1210 cells): no sign of toxicity
- % Increase in life-span (T/C) (Leukemia L-1210 cells; ip, 0.15 mg/kg): 105%
- % Increase in life-span (T/C) (Leukemia L-1210 cells; ip, 0.3 mg/kg): 105%
- % Increase in life-span (T/C) (Leukemia L-1210 cells; ip, 0.6 mg/kg): 125%
- % Increase in life-span (T/C) (Leukemia L-1210 cells; ip, 1.25 mg/kg): 171%
- % Increase in life-span (T/C) (Leukemia L-1210 cells; ip, 2.5 mg/kg): 217%
- % Increase in life-span (T/C) (Leukemia L-1210 cells; ip, 5 mg/kg): 184%

Compound: COc1cccc2c1C(=O)c1c(O)c3c(c(O)c1C2=O)C[C@@](O)(C(=O)CO)C[C@@H]3O[C@H]1C[C@H](N)[C@H](O)[C@H](C)O1 [Adriamycin, reference compound]
- cardiac toxicity [4]: cardiac toxicity
- decrease in the number of leukocytes [4]: decrease in the number of leukocytes
- falling-off of the hair [4]: falling-off of the hair
- % Increase in life-span (T/C) (Leukemia L-1210 cells; [10]): 123%
- % Increase in life-span (T/C) (Leukemia L-1210 cells; [11]): 136%
- % Increase in life-span (T/C) (Leukemia L-1210 cells; [12]): 142%
- % Increase in life-span (T/C) (Leukemia L-1210 cells; [13]): 222%
- % Increase in life-span (T/C) (Leukemia L-1210 cells; [14]): 228%
- % Increase in life-span (T/C) (Leukemia L-1210 cells; [15]): 191%
- sign of toxicity (Leukemia L-1210 cells): appearance of toxicity
- antitumor activity (experimental tumors [5]): fairly high antitumor activity against various kinds of tumors

Compound: COc1cccc2c1C(=O)c1c(O)c3c(c(O)c1C2=O)C[C@@](O)(C(=O)CO)C[C@@H]3O[C@@H]1O[C@@H](C)[C@@H](O)[C@@H](O)[C@H]1F [Compound of formula (l), 7-O-(2,6-dideoxy-2-fluoro-α-L-talopyranosyl)adriamycinone]
- antibacterial activity (some species of bacteria): high antibacterial activities
- antitumor activity (experimental tumors [2]): excellent antitumor activities
- toxicity (experimental tumors [2]): low toxicities
- stability of glycoside linkage against hydrolysis by acid [3]: high stability against hydrolysis by acid
- sign of toxicity (Leukemia L-1210 cells): no sign of toxicity
- % Increase in life-span (T/C) (Leukemia L-1210 cells; ip, 0.15 mg/kg): 127%
- % Increase in life-span (T/C) (Leukemia L-1210 cells; ip, 0.3 mg/kg): 182%
- % Increase in life-span (T/C) (Leukemia L-1210 cells; ip, 0.6 mg/kg): 185%
- % Increase in life-span (T/C) (Leukemia L-1210 cells; ip, 1.25 mg/kg): 275%
- % Increase in life-span (T/C) (Leukemia L-1210 cells; ip, 2.5 mg/kg): > 352%
- % Increase in life-span (T/C) (Leukemia L-1210 cells; ip, 5 mg/kg): > 740%

Compound: CO[C@@H]1O[C@@H](C)[C@@H](O)[C@@H](O)[C@H]1F [Compound of formula (h), methyl 2,6-dideoxy-2-fluoro-α-L-talopyranoside]
- antibacterial activity compared with phenol (some species of bacteria): higher antibacterial activity against some species of bacteria than that of phenol
- MIC [6]: 100 µg/mL
- MIC [7]: 100 µg/mL

Compound: COc1cccc2c1C(=O)c1c(O)c3c(c(O)c1C2=O)C[C@@](O)(C(C)=O)C[C@@H]3O[C@@H]1O[C@@H](C)[C@@H](OC(C)=O)[C@@H](OC(C)=O)[C@H]1I [Compound NSC 327,472, 7-O-(3,4-di-O-acetyl-2,6-dideoxy-2-iodo-α-L-talohexopyranosyl)daunomycinone]
- increase (%) of survival days (Leukemia P 388; 12.5 mg/kg to 25 mg/kg): 172%
- increase (%) of survival days (Leukemia P 388; 150 mg/kg): 162%

Compound: COc1cccc2c1C(=O)c1c(O)c3c(c(O)c1C2=O)C[C@@](O)(C(C)=O)C[C@@H]3O[C@H]1C[C@H](N)[C@H](O)[C@H](C)O1 [Daunomycin, reference compound]
- acid hydrolysis ([3]; 0.2N HCl in acetonitrile-water (4:1), 30 minutes): completely decomposed
- acid hydrolysis, TLC result [3, 9]: disappearance of the spot of daunomycin
- % Increase in life-span (T/C) (Leukemia L-1210 cells; [10]): 132%
- % Increase in life-span (T/C) (Leukemia L-1210 cells; [11]): 112%
- % Increase in life-span (T/C) (Leukemia L-1210 cells; [12]): 145%
- % Increase in life-span (T/C) (Leukemia L-1210 cells; [13]): 158%
- % Increase in life-span (T/C) (Leukemia L-1210 cells; [14]): 171%
- % Increase in life-span (T/C) (Leukemia L-1210 cells; [15]): 138%
- antitumor activity (experimental tumors [5]): fairly high antitumor activity against various kinds of tumors

Compound: COc1cccc2c1C(=O)c1c(O)c3c(c(O)c1C2=O)C[C@@](O)(C(C)=O)C[C@@H]3O [daunomycinone]
- cardiac toxicity compared with daunomycin or adriamycin [1]: higher cardiac toxicity than the daunomycin or adriamycin itself

Compound: C[C@@H]1OC(O)[C@H](F)[C@H](O)[C@@H]1O (stereo partly drawn) [Compound of formula (i), 2,6-dideoxy-2-fluoro-α,β-L-talopyranose]
- antibacterial activity (some species of bacteria): shows antibacterial activity
- antibacterial activity compared with phenol (some species of bacteria): higher antibacterial activity against some species of bacteria than that of phenol
- MIC [8]: 100 µg/mL
- MIC [7]: 100 µg/mL
